The values that follow come from ChEMBL document CHEMBL1123527 (J Med Chem, 1986).

pIC50, pKi: −log10 of the molar value. In brackets after ≈: the same amount, converted by molar mass.

What is called pIC50 is −log10 of the IC50, conventionally taken in molar units. Read a high pIC50 as a low IC50. What is called IC50 is the concentration needed to halve the response being measured. Usually T/C stands for the ratio of treated to control. As usually defined, the Km is the substrate concentration at which the rate is half of its maximum. Usually pKi stands for −log10 of the Ki, conventionally taken in molar units. Lower therefore signals a high Ki.

Data set [1] addresses T1, Thymidylate synthase (Lactobacillus casei, UniProt P00469).
T1 sequence (P00469 whole entry): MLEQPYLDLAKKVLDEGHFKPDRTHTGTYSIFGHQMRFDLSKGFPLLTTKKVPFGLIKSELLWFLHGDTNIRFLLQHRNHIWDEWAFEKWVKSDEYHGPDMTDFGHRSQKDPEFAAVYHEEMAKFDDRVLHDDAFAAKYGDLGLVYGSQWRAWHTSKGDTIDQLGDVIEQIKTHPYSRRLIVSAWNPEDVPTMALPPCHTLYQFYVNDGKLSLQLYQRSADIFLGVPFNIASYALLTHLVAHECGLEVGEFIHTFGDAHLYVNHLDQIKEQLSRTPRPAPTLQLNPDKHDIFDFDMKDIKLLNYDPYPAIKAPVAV
The experiment in a line: (§1) Compound was evaluated for inhibitory effect on the thymidylate synthase (TS) of Lactobacillus casei. It is filed as functional, Lacticaseibacillus casei.

Data set [2] deals with Enterococcus faecium. The experiment in a line: Compound was evaluated for inhibitory effect on growth of Streptococcus faecium ATCC 8043. It is filed as functional, organism-based.
Data set [3] has as its system Lacticaseibacillus casei. In words: Compound was evaluated for inhibitory effect on growth of Lactobacillus casei ATCC 7469. The data set is classed as functional, organism-based.
Data set [4] concerns Lacticaseibacillus casei. The experiment in a line: Compound was evaluated for inhibitory effect on growth of Lactobacillus casei MTX resistant. It is filed as functional, organism-based.
Data set [5] relates to Enterococcus faecium. The experiment in a line: Compound was evaluated for inhibitory effect on growth of Streptococcus faecium MTX resistant. It is filed as functional, organism-based.
The subject of data set [6] is P388. The experiment in a line: (§2) Compound at a optimum dose level of 0.5 mg/kg was evaluated in vivo against Murine P388/0 […] cells (1 X 10E6 ip implant). It is filed as functional, Mus musculus. The conditions noted are these: route intraperitoneal.
The subject of data set [7] is P388. Described as §2. It is filed as organism-based. Also noted: dose 0.5 mg/kg, route intraperitoneal. The conditions noted are these: mouse.
For data set [8], the system named is P388. In words: Compound at a optimum dose level of 2 mg/kg was evaluated in vivo against Murine P388/MTX resistant cells (1 X 10E6 ip implant). The data set is classed as functional, Mus musculus. The conditions noted are these: route intraperitoneal.
For data set [9], the system named is L1210. In words: Compound was evaluated for the efflux (K) mediated transport with respect to L1210 cells. As to conditions: Mus musculus. The data set is classed as functional, cell-based.
For data set [10], the system named is L1210. The experiment in a line: cells. As to conditions: Mus musculus.
Data set [11] has as its system L1210. In words: Compound was evaluated for the influx (Km) mediated transport with respect to L1210 cells. The data set is classed as functional, cell-based. The conditions noted are these: Mus musculus.
In another data set the target is T2, Dihydrofolate reductase (Mus musculus, UniProt P00375).
T2 sequence (P00375 whole entry): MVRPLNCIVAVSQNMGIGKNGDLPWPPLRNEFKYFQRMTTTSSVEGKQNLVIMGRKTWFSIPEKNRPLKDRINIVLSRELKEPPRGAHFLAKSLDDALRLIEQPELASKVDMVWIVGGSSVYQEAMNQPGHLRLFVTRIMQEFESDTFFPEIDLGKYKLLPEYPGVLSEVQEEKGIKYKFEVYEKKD
In words: Compound was evaluated for inhibitory effect on dihydrofolate reductase (DHFR) from L1210 cells at Inhibitory constant (n=3). The data set is classed as cell-based.

Data set [12] deals with L1210. In words: Compound was evaluated for rate of anabolism to polyglutamate accumulation in L1210 cells. It is filed as functional, Mus musculus.
Data set [13] relates to P388. In words: Compound at a optimum dose level of 0.5 mg/kg was evaluated in vivo against Murine P388/MTX resistant cells (1 X 10E6 ip implant). It is filed as functional, Mus musculus. The conditions noted are these: route intraperitoneal.
Data set [14] deals with L1210. In words: Compound was evaluated for the influx (Km) mediated transport with respect to L1210 cells. It is filed as functional, cell-based. The conditions noted are these: Mus musculus.
Data set [15] concerns the target T1, Thymidylate synthase. Described as §1. Also noted: species or system Lacticaseibacillus casei.
The mark [16] stands for this setting: Lacticaseibacillus casei, read-out: IC50.

`Nc1nc(O)c2cc(CNc3ccc(C(=O)NC(CCC(=O)O)C(=O)O)cc3)cnc2n1` (stereo not given) had a pIC50 at Thymidylate synthase [1] of 5.77. Also, the IC50 in the data set on Enterococcus faecium [2] came to 0.09 ng/mL (≈ 0.000204 µM); in the data set with Lacticaseibacillus casei [3], 0.054 ng/mL (≈ 0.000123 µM); in the data set on Lacticaseibacillus casei [4] (setting [16]), 3500 ng/mL (≈ 7.95 µM); in the data set on Enterococcus faecium [5], 49 ng/mL (≈ 0.111 µM).

For `Cc1c(CN(C)c2ccc(C(=O)NC(CCC(=O)O)C(=O)O)cc2)cnc2nc(N)nc(N)c12` (stereo not given), the Survival time in the data set on P388 [6] was 19.7 days; with P388 [8], 20.8 days. In the data set on P388 [7], this molecule yielded a T/C of 182%. In the data set on L1210 [9], this molecule displayed a K of 0.31 min⁻¹. Further, the pIC50 in the data set on L1210 [10] was 9.62. Besides, the Km with L1210 [11] is 3.2 µM. The negative logarithm of the Ki (pKi) at Dihydrofolate reductase was 11.67. Moreover, in the data set on L1210 [12], the Rate was 42.9 pM min-1 (g dry weight)-1.

As to `Cc1c(CNc2ccc(C(=O)NC(CCC(=O)O)C(=O)O)cc2)cnc2nc(N)nc(N)c12` (stereo not given), the Survival time in the data set with P388 [13] stood at 20.8 days; in the data set on P388 [6], 16.4 days. In the data set on P388 [7], the T/C amounted to 151%. Further, in the data set with L1210 [9], the K was 0.26 min⁻¹. In the data set with L1210 [10], this molecule gave a negative logarithm of the IC50 (pIC50) of 9.89. Besides, in the data set on L1210 [11], the Michaelis constant (Km) came to 1.2 µM. This molecule had a negative logarithm of the Ki (pKi) at Dihydrofolate reductase of 11.53. In addition, the Rate in the data set with L1210 [12] is listed as 98.3 pM min-1 (g dry weight)-1.

`CN(Cc1cnc2nc(N)nc(N)c2c1)c1ccc(C(=O)NC(CCC(=O)O)C(=O)O)cc1` (stereo not given): the values for the Survival time with P388 [6] and in the data set with P388 [8] were 18 days and 20.3 days, respectively. The molecule also gave a T/C with P388 [7] of 166%. Besides, in the data set with L1210 [9], the K was determined as 0.28 min⁻¹. Also, the Michaelis constant (Km) in the data set on L1210 [14] was found to be 4 µM. The negative-log IC50 (pIC50) in the data set with L1210 [10] is 8.55. In addition, the negative-log Ki (pKi) on Dihydrofolate reductase was 11.28. Further, in the data set with L1210 [12], the Rate was 48.8 pM min-1 (g dry weight)-1.

In the case of `Nc1nc(N)c2nc(CNc3ccc(C(=O)N[C@@H](CCC(=O)O)C(=O)O)cc3)cnc2n1` [AMINOPTERIN], the K in the data set on L1210 [9] amounted to 0.31 min⁻¹. For the same molecule, the Km in the data set with L1210 [11] came out at 1.2 µM. On Dihydrofolate reductase, this molecule showed a pKi of 11.45. Moreover, the Rate in the data set with L1210 [12] is on record as 165 pM min-1 (g dry weight)-1.

For `Cc1c(CNc2ccc(C(=O)NC(CCC(=O)O)C(=O)O)cc2)cnc2nc(N)nc(O)c12` (stereo not given), the 50% inhibitory concentration (IC50) was 380 ng/mL (≈ 0.836 µM) in the data set on Enterococcus faecium [2], 0.57 ng/mL (≈ 0.00125 µM) in the data set with Lacticaseibacillus casei [3], more than 10000 ng/mL with Lacticaseibacillus casei [4] (setting [16]) and more than 10000 ng/mL in the data set with Enterococcus faecium [5].

The molecule `Cc1c(CN(C)c2ccc(C(=O)NC(CCC(=O)O)C(=O)O)cc2)cnc2nc(N)nc(O)c12` (stereo not given) showed a negative logarithm of the IC50 (pIC50) on Thymidylate synthase [15] of 8.56. Also, the concentration for half-maximal inhibition (IC50) in the data set with Enterococcus faecium [2] was 30 ng/mL (≈ 0.064 µM); in the data set with Lacticaseibacillus casei [3], 4.6 ng/mL (≈ 0.00982 µM); with Lacticaseibacillus casei [4] (setting [16]) it was more than 10000 ng/mL; in the data set on Enterococcus faecium [5], more than 10000 ng/mL.

`CCOC(=O)CCC(NC(=O)c1ccc(NCc2cnc3nc(N)nc(N)c3c2)cc1)C(=O)OCC` (stereo not given): the Survival time came out at 16.2 days with P388 [6] and 20.8 days in the data set with P388 [8]. In the data set with P388 [7], this molecule displayed a T/C of 151%.

With `CN(Cc1cnc2nc(N)nc(N)c2n1)c1ccc(C(=O)N[C@@H](CCC(=O)O)C(=O)O)cc1` [METHOTREXATE], the Survival time worked out at 19.7 days in the data set with P388 [6] and 20.3 days in the data set on P388 [8]. The molecule also had a T/C in the data set with P388 [7] of 182%. The half-inhibitory concentration (IC50) in the data set on Enterococcus faecium [2] was 0.26 ng/mL (≈ 0.000572 µM); with Lacticaseibacillus casei [4] it was more than 500000 ng/mL; in the data set on Enterococcus faecium [5], 3000 ng/mL (≈ 6.6 µM). Moreover, the K with L1210 [9] turned out to be 0.33 min⁻¹. The Km in the data set with L1210 [11] is 3.3 µM.

On to `Nc1nc(N)c2cc(CNc3ccc(C(=O)NC(CCC(=O)O)C(=O)O)cc3)cnc2n1` (stereo not given), for which the Survival time with P388 [6] came out at 15.8 days; in the data set with P388 [8], 21.8 days. For the same molecule, the T/C in the data set with P388 [7] was determined as 146%. Moreover, the K in the data set with L1210 [9] turned out to be 0.3 min⁻¹. The pIC50 with L1210 [10] was 9.20. In addition, the Michaelis constant (Km) with L1210 [11] came out at 1.1 µM. Moreover, on Dihydrofolate reductase, the negative-log Ki (pKi) was 11.44. Besides, the Rate in the data set on L1210 [12] is on record as 84.2 pM min-1 (g dry weight)-1.

Consider `CCN(Cc1cnc2nc(N)nc(N)c2c1C)c1ccc(C(=O)NC(CCC(=O)O)C(=O)O)cc1` (stereo not given), for which the K in the data set with L1210 [9] came out at 0.29 min⁻¹. For the same molecule, the negative logarithm of the IC50 (pIC50) in the data set with L1210 [10] is 9.59. Besides, in the data set on L1210 [11], the Michaelis constant (Km) came to 3.3 µM. Moreover, on Dihydrofolate reductase, the negative logarithm of the Ki (pKi) was 11.58.
